Data taken from patent US10597388B2, “Pyridazinone herbicides” (FMC CORPORATION, priority 2014, dated 2020).

Legend:
Assay in all cases: Test D controlled growth environment herbicide test, pre- and postemergence
Assay type in all cases: in vivo
[1] = tested on: oilseed rape (Brassica napus)
Method in brief: (§1)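 Species sown in silt loam and sprayed preemergence, or grown in peat-based medium to 2–18 cm (1- to 4-leaf stage) and sprayed postemergence, with compounds in non-phytotoxic solvent plus surfactant. Visual injury scored versus controls after 14–21 d in a controlled environment, 0 (no effect) to 100 (complete control).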

[2] = tested on: windgrass (Apera spica-venti)
Method in brief: as §1

[3] = tested on: pigweed (Amaranthus retroflexus)
Method in brief: as §1

[4] = tested on: Russian thistle (Salsola kali)
Method in brief: as §1

[5] = tested on: radish, wild (wild radish, Raphanus raphanistrum)
Method in brief: as §1

kochia (Kochia scoparia) = tested on: kochia (Kochia scoparia)
Method in brief: as §1

[6] = tested on: galium (catchweed bedstraw, Galium aparine)
Method in brief: as §1

[7] = tested on: speedwell (bird's-eye speedwell, Veronica persica)
Method in brief: as §1

[8] = tested on: field violet (Viola arvensis)
Method in brief: as §1

[9] = tested on: bluegrass (annual bluegrass, Poa annua)
Method in brief: as §1

[10] = tested on: buckwheat, wild (wild buckwheat, Polygonum convolvulus)
Method in brief: as §1

[11] = tested on: canarygrass (Phalaris minor)
Method in brief: as §1

[12] = tested on: mustard, wild (wild mustard, Sinapis arvensis)
Method in brief: as §1

[13] = Postemergence, 31 g ai/ha, scale 0 to 100 (0 no effect, 100 complete control)
[14] = Postemergence, 125 g ai/ha, visual rating on scale 0 (no effect) to 100 (complete control), 14 to 21 d
[15] = Postemergence, 250 g ai/ha, scale 0 to 100 (0 no effect, 100 complete control)
[16] = Preemergence, 125 g ai/ha, scale 0 to 100 (0 no effect, 100 complete control)
[17] = Preemergence, 250 g ai/ha, scale 0 to 100 (0 no effect, 100 complete control)
[18] = postemergence, 62 g ai/ha, scale 0 to 100, 0 no effect, 100 complete control
[19] = Preemergence, 62 g ai/ha, scale 0 to 100 (0 no effect, 100 complete control)

CCOC(=O)Oc1c(C)nn(C)c(=O)c1-c1c(C)sc2ccc(C)cc12 [Compound 82]
65: Russian Thistle plant response rating [4, 13] | Plant response rating, Russian Thistle [4, 16] | Plant response rating, Russian Thistle [4, 17] | Plant response rating (scale of 0 to 100), Radish, Wild ([5]; Preemergence, 31 g ai/ha) | Plant response rating, Bluegrass [9, 16]
70: Windgrass plant response rating [2, 13] | Speedwell plant response rating [7, 13] | Plant response rating, Mustard, Wild [12, 15]
45: Plant response rating, Oilseed Rape [1, 18] | Plant response rating, Bluegrass [9, 19]
95: Plant response rating, Kochia (kochia (Kochia scoparia); [18]) | Field Violet plant response rating [8, 13] | Plant response rating, Field Violet [8, 16] | Plant response rating, Canarygrass [11, 17]
60: Plant response rating, Oilseed Rape [1, 14] | Plant response rating, Oilseed Rape [1, 17] | Plant response rating, Radish, Wild [5, 15] | Plant response rating (scale of 0 to 100), Radish, Wild ([5]; Preemergence, 62 g ai/ha) | Plant response rating, Radish, Wild [5, 16] | Plant response rating (scale of 0 to 100), Galium ([6]; Preemergence, 31 g ai/ha) | Plant response rating (scale of 0 to 100), Galium ([6]; Preemergence, 62 g ai/ha)
100: Plant response rating, Windgrass [2, 16] | Plant response rating, Windgrass [2, 17] | Plant response rating, Pigweed [3, 14] | Plant response rating, Pigweed [3, 15] | Plant response rating (scale of 0 to 100), Pigweed ([3]; Preemergence, 31 g ai/ha) | Plant response rating (scale of 0 to 100), Pigweed ([3]; Preemergence, 62 g ai/ha) | Plant response rating, Pigweed [3, 16] | Plant response rating, Pigweed [3, 17] | Plant response rating, Pigweed [3, 18] | Plant response rating, Radish, Wild [5, 17] | Plant response rating, Kochia (kochia (Kochia scoparia); [14]) | Plant response rating, Kochia (kochia (Kochia scoparia); [15]) | Plant response rating, Kochia (kochia (Kochia scoparia); [17]) | Plant response rating, Galium [6, 14] | Plant response rating, Galium [6, 15] | Plant response rating, Galium [6, 18] | Plant response rating, Speedwell [7, 16] | Plant response rating, Speedwell [7, 17] | Plant response rating, Field Violet [8, 14] | Plant response rating, Field Violet [8, 15] | Plant response rating (scale of 0 to 100), Field Violet ([8]; Preemergence, 31 g ai/ha) | Plant response rating, Field Violet [8, 17] | Plant response rating, Field Violet [8, 18] | Plant response rating, Buckwheat, Wild [10, 14] | Plant response rating, Buckwheat, Wild [10, 15] | Plant response rating, Buckwheat, Wild [10, 18]
75: Plant response rating (scale of 0 to 100), Windgrass ([2]; Preemergence, 31 g ai/ha) | Plant response rating, Windgrass [2, 18] | Plant response rating, Russian Thistle [4, 14] | Plant response rating, Russian Thistle [4, 18] | Plant response rating, Kochia (kochia (Kochia scoparia); [16]) | Plant response rating (scale of 0 to 100), Speedwell ([7]; Preemergence, 31 g ai/ha) | Plant response rating (scale of 0 to 100), Speedwell ([7]; Preemergence, 62 g ai/ha) | Plant response rating, Speedwell [7, 18] | Plant response rating, Canarygrass [11, 14] | Plant response rating (scale of 0 to 100), Canarygrass ([11]; Preemergence, 31 g ai/ha)
15: Plant response rating (scale of 0 to 100), Russian Thistle ([4]; Preemergence, 62 g ai/ha) | Plant response rating (scale of 0 to 100), Kochia (kochia (Kochia scoparia); Preemergence, 62 g ai/ha) | Plant response rating (scale of 0 to 100), Bluegrass ([9]; Preemergence, 31 g ai/ha) | Plant response rating, Buckwheat, Wild [10, 16] | Plant response rating, Mustard, Wild [12, 17]
0: Plant response rating (scale of 0 to 100), Kochia (kochia (Kochia scoparia); Preemergence, 31 g ai/ha) | Plant response rating, Buckwheat, Wild [10, 19] | Plant response rating, Buckwheat, Wild [10, 17] | Plant response rating (scale of 0 to 100), Mustard, Wild ([12]; Preemergence, 31 g ai/ha) | Plant response rating (scale of 0 to 100), Mustard, Wild ([12]; Preemergence, 62 g ai/ha)
35: Plant response rating (scale of 0 to 100), Oilseed Rape ([1]; Preemergence, 62 g ai/ha) | Plant response rating, Oilseed Rape [1, 16] | Plant response rating, Bluegrass [9, 15] | Plant response rating (scale of 0 to 100), Buckwheat, Wild ([10]; Preemergence, 31 g ai/ha) | Plant response rating, Mustard, Wild [12, 18]
55: Plant response rating, Canarygrass [11, 18]
80: Plant response rating, Oilseed Rape [1, 15] | Plant response rating, Windgrass [2, 14] | Plant response rating (scale of 0 to 100), Windgrass ([2]; Preemergence, 62 g ai/ha) | Plant response rating, Galium [6, 16] | Plant response rating, Bluegrass [9, 17]
50: Plant response rating, Radish, Wild [5, 14] | Canarygrass plant response rating [11, 13]
85: Plant response rating, Windgrass [2, 15] | Plant response rating, Russian Thistle [4, 15] | Plant response rating, Galium [6, 17] | Plant response rating, Speedwell [7, 14] | Plant response rating, Speedwell [7, 15] | Buckwheat, Wild plant response rating [10, 13] | Plant response rating, Canarygrass [11, 15] | Plant response rating (scale of 0 to 100), Canarygrass ([11]; Preemergence, 62 g ai/ha)
40: Plant response rating, Mustard, Wild [12, 14]
20: Plant response rating, Radish, Wild [5, 18] | Plant response rating, Bluegrass [9, 18]
90: Pigweed plant response rating [3, 13] | Kochia plant response rating (kochia (Kochia scoparia); [13]) | Galium plant response rating [6, 13] | Plant response rating (scale of 0 to 100), Field Violet ([8]; Preemergence, 62 g ai/ha) | Plant response rating, Canarygrass [11, 16]
30: Plant response rating (scale of 0 to 100), Oilseed Rape ([1]; Preemergence, 31 g ai/ha) | Plant response rating, Bluegrass [9, 14]
10: Plant response rating (scale of 0 to 100), Russian Thistle ([4]; Preemergence, 31 g ai/ha) | Bluegrass plant response rating [9, 13]
25: Oilseed Rape plant response rating [1, 13] | Radish, Wild plant response rating [5, 13] | Mustard, Wild plant response rating [12, 13] | Plant response rating, Mustard, Wild [12, 16]
